For one molecule, cholesterol and triglycerides results are on record in patent US4073938A, “19,20-Bis-nor-prostenoic acids as hypolipemic compounds” (Istituto Biochimico Italiano di Loredana Lorenzini S.a.s., priority 1974, dated 1978).

Counter-ions that a name gives are not always drawn.

The nature of this experiment: Triglycerides and cholesterol in rats on Nath diet, 25 and 50 mg/kg endoperitoneal. Type of experiment: in vivo, male Sprague-Dawley rats. As to conditions: 1 week. The procedure: Treatment with 25 and 50 mg/kg/die endoperitoneal for 1 week on male
Sprague-Dawley rats of 150 gr.

Regarding `CCCCCCC1CCC(O)C1CCCCCCC(=O)O` (stereo not shown) [Compound C83, 9-hydroxy-19,20-bis-nor-prostanoic acid sodium salt], the cholesterol is, setting by setting: (25 mg/kg/die endoperitoneal, controls 64.4 ± 2.8, Nath diet 180.0 ± 15.8, p<0.01 vs Nath diet) 108.3 ± 13.9; (50 mg/kg/die endoperitoneal, Nath diet 180.0 ± 15.8, p<0.001 vs Nath diet) 101.8 ± 4.4. Further, the triglycerides (25 mg/kg/die endoperitoneal, controls 91.1 ± 13.5, Nath diet 135.2 ± 22.8) came to 81.5 ± 13.3 and the triglycerides (50 mg/kg/die endoperitoneal, Nath diet 135.2 ± 22.8, p<0.01 vs Nath diet) was 49.1 ± 6.1.
